Reference: ChEMBL document CHEMBL1126477 (Bioorg Med Chem Lett, 1993)

Legend:
Rattus norvegicus [1] = assay: The compound was tested for antihypertensive activity in renal hypertensive rat after oral administration; assay type: functional
Rattus norvegicus [2] = assay: The compound was tested for antihypertensive activity in renal hypertensive rat after intravenous administration; assay type: functional
Angiotensin II receptor = biological target: T1, Angiotensin II receptor (Rattus norvegicus, UniProt P29089+P25095+P35351); assay: Angiotensin II receptor antagonist activity was determined by 50% inhibition of specific binding of [3H]angiotensin II (2 nM) to rat adrenal cortical microsomes
T1 sequence (P29089 whole entry): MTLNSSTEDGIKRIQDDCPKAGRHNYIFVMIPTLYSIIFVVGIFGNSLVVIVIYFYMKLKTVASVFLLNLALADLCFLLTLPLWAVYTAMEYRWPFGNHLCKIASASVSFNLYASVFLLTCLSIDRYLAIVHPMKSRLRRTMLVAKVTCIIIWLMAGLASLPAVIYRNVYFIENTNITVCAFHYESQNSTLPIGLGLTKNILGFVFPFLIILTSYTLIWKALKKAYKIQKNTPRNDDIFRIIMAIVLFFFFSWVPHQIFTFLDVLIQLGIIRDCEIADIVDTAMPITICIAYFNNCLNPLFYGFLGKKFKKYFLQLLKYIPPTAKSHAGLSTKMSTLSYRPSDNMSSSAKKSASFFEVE
T1 sequence (P25095 whole entry): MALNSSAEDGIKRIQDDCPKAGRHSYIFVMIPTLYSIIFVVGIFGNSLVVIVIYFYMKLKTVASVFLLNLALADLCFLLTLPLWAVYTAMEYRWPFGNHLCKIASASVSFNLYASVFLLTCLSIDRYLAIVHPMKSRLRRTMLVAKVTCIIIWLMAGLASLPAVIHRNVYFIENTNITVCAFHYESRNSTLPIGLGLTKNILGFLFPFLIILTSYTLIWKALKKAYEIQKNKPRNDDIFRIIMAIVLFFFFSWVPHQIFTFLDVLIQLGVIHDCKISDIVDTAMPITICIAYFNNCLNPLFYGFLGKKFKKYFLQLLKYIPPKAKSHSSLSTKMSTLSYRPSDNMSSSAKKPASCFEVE
T1 sequence (P35351 whole entry): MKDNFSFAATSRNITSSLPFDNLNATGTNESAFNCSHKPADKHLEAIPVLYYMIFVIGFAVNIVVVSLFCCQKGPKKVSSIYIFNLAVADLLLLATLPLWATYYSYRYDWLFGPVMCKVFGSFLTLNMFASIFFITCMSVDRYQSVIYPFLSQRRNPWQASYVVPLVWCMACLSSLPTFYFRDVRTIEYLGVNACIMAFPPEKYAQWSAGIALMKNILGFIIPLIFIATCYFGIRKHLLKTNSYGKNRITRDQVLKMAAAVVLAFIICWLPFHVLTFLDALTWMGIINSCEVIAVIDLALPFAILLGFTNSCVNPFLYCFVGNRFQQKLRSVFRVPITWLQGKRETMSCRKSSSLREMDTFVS

Structure (SMILES) | ED30 (Rattus norvegicus [1]) | ED30 (Rattus norvegicus [2]) | IC50 (Angiotensin II receptor)
CCCCc1nc(Cl)c(C(=O)O)n1Cc1ccc(-c2ccccc2-c2nn[nH]n2)cc1 [CARBOXYLIC ACID METABOLITE] | 0.66 mg/kg | 0.038 mg/kg | 
CCCc1nc(C(F)(F)F)c(CO)n1Cc1ccc(-c2ccccc2-c2nn[nH]n2)cc1 |  |  | 6.4 nM
CCCc1nc(C(F)(F)F)c(CO)n1Cc1ccc(-c2ccccc2C(=O)O)cc1 |  |  | 130 nM
CCCc1nc(C(F)(F)C(F)(F)C(F)(F)F)c(CO)n1Cc1ccc(-c2ccccc2C(=O)O)cc1 |  |  | 74 nM
CCCc1nc(C(F)(F)C(F)(F)F)c(C(=O)O)n1Cc1ccc(-c2ccccc2-c2nn[nH]n2)cc1 | 0.21 mg/kg | 0.042 mg/kg | 
CCCc1nc(C(F)(F)F)c(C(=O)O)n1Cc1ccc(-c2ccccc2-c2nn[nH]n2)cc1 | 0.79 mg/kg | 0.01 mg/kg | 
CCCc1nc(C(F)(F)C(F)(F)F)c(CO)n1Cc1ccc(-c2ccccc2C(=O)O)cc1 |  |  | 48 nM
CCCc1nc(C(F)(F)C(F)(F)F)c(CO)n1Cc1ccc(-c2ccccc2-c2nn[nH]n2)cc1 |  |  | 1.2 nM
CCCc1nc(C(F)(F)C(F)(F)C(F)(F)C(F)(F)F)c(CO)n1Cc1ccc(-c2ccccc2C(=O)O)cc1 |  |  | 290 nM
CCCc1nc(C(F)(F)C(F)(F)C(F)(F)C(F)(F)C(F)(F)C(F)(F)F)c(CO)n1Cc1ccc(-c2ccccc2C(=O)O)cc1 |  |  | 2500 nM
CCCc1nc(C(F)(F)C(F)(F)C(F)(F)F)c(CO)n1Cc1ccc(-c2ccccc2-c2nn[nH]n2)cc1 |  |  | 13 nM
CCCc1nc(C(F)(F)C(F)(F)C(F)(F)F)c(C(=O)O)n1Cc1ccc(-c2ccccc2-c2nn[nH]n2)cc1 |  | 0.62 mg/kg | 
